Assay results: patent US20240009159A1, “ANTIVIRAL COMPOSITION FOR SARS-COV-2 AND HCOV-OC43 COMPRISING RHEIN, MECLOFENAMIC ACID, OR A COMBINATION THEREOF” (SEOUL NATIONAL UNIVERSITY R&DB FOUNDATION, priority 2020, published 2024)
Read-outs that look alike come from different tables or passages of the source.

Key:
[1] = system: SARS-CoV-2; format: cell-based; settings: SARS-CoV-2-infected Calu-3 cells
[2] = system: SARS-CoV-2; format: cell-based; settings: SARS-CoV-2-infected Vero cells
[3] = system: HCoV-OC43; assay: viral RNA level by qRT-PCR in HCoV-OC43-infected HCT-8 cells; format: cell-based, human coronavirus OC43 (HCoV-OC43)
[4] = system: HCoV-OC43; assay: viral RNA level by qRT-PCR in HCoV-OC43-infected Vero cells; format: cell-based, human coronavirus OC43 (HCoV-OC43); settings: for viral RNA level of N (normalized to GAPDH): control DMSO
[5] = system: SARS-CoV-2; format: cell-based; settings: MA at 50 μM, treated two hours before infection; SARS-CoV-2-infected differentiated HBEC cells, 3.3×10^4 PFU; 48 hours after infection
[6] = rhein at 25 μM, MOI 0.05, 24 hours after infection, control DMSO

Structure (SMILES)	viral RNA levels of nsp12, M, and N (normalized to GAPDH) compared with the control group ([1]; MA at 50 μM, control ethanol)	viral RNA levels of nsp12, M, and N (normalized to GAPDH) compared with the control group ([2]; MA at 50 μM, control ethanol)	viral RNA level of N (normalized to GAPDH) ([3]; MA at 50 μM, control DMSO and ethanol)	viral RNA level of N (normalized to GAPDH) ([4]; MA at 10 μM, 25 μM, 50 μM, and 100 μM)	viral RNA levels (nsp12, M, and N, normalized to GAPDH) compared with the control group [5] [%]	viral RNA levels of nsp12, M, and N (normalized to GAPDH) compared with the control group [1, 6]	viral RNA levels of nsp12, M, and N (normalized to GAPDH) compared with the control group [2, 6]	viral RNA level of N (normalized to GAPDH) ([3]; rhein at 250 μM and 25 μM, 24 hours after infection, control DMSO+Ethanol)	dose dependence of inhibition of the RNA level of N ([4]; increasing concentration of rhein (5-50 μM), FIG. 1D)	viral RNA level of N (normalized to GAPDH) ([4]; rhein at 5 μM, 10 μM, 25 μM, and 50 μM, 24 hours after infection)
Cc1ccc(Cl)c(Nc2ccccc2C(=O)O)c1Cl [MA, meclofenamic acid]	less than 5%	less than 5%	significantly inhibited	significantly inhibited	≤ 40	–	–	–	–	–
O=C(O)c1cc(O)c2c(c1)C(=O)c1cccc(O)c1C2=O [rhein, 4,5-dihydroxy-9,10-dioxoanthracene-2-carboxylic acid]	–	–	–	–	–	less than 5%	less than 30%	significantly inhibited	dose-dependent effect was confirmed	significantly inhibited
